From patent publication US12486274B2, “Substituted pyrazolo-pyrimidines and uses thereof” (Verge Analytics, Inc., priority 2020, dated 2025) come the findings set out here.

Broadly, the EC50 is the concentration that produces a half-maximal response. Read a low EC50 as a more potent agent. A word on the IC50: it is the concentration that inhibits the measured activity by half.

Test [1] deals with HEK 293T transfected with plasmids containing TDP-43 Q331K mutation. Put plainly: HEK/TDP Survival assay (Cell-Titer-Glo). Type of test: cell-based. Conditions: Homo sapiens; HEK 293T TDP-43 Q331K, 48 hrs, CTG readout. As to the method: HEK/TDP Survival assay: Immortalized human embryonic kidney 293T (HEK 293T) were transfected with plasmids containing TDP-43 Q331K mutation, resulting in an increase in cell death that is biologically relevant to ALS patients. Cell death is measured as reductions in the amount of ATP, an indicator of metabolically active cells, that is quantified by a luminescence Cell-Titer-Glo® (CTG) reagent. Compounds are evaluated in this model for changes in CTG compared to no treatment group. Increased signal indicates improved survival (rescue) and decreased signal indicates decreased survival.
Cell rescue was measured in a 96-well format with eight different concentrations of the test compound over 48 hrs with 6 replicates. The Promega Cell-Titer-Glo® Luminescent Cell Viability Assay was used to quantify ATP, an indicator of metabolically active cells (see protocol: https://www.promega.com/-/media/files/resources/protocols/technical-manuals/101/celltiterglo-2-O-assay-protocol.pdf?la=en). The luminescence signal was detected using the PerkinElmer En Vision or Molecular Devices SpectraMax.
The effect of a compound at a given dose on cell viability was determined using a three step procedure. First, Hedge's g for the Cell Titer-Glo luminescence values using six untreated wells on every plate as a control was calculated. […] Finally, values from all compound-dose pairs were corrected for multiple hypothesis testing using the Empirical Bayes framework of Stephens, M. (False discovery rates: a new deal, Biostatistics, 18 [2], 2017, 275-294) yielding credible intervals for the measured effect and associated s values.
Briefly, this method computes a local false sign rate for each experiment. Analogous to the local false discovery rate of Efron, B. (Size, power and false discovery rates, Ann. Statist. 35 [4], 2007, 1351-1377) this value measures the confidence in the sign of each effect (rather than confidence in each effect being non-zero). The s values reported in the previous figures are the expected fraction of errors if estimating the sign of all effects with greater absolute local false sign rate, defined in analogy to the q value of Storey, JD (The positive false discovery rate: a Bayesian interpretation and the q-value, Ann. Statist. 31 [6] 2003, 2013-2035).
Drugs that yielded signed log s values greater than 3 were considered hits. This threshold was determined by a separate calibration experiment in which Cell Titer-Glo® was measured in blank plates consisting of untreated cells to assess the noise inherent in the assay. Data are presented as the maximal effect of rescue obtained from the dose-response curve.

In test [2] the target is Full length human recombinant PIKFYVE (Homo sapiens (Human), UniProt Q9Y2I7). Description: Inhibition of PIKfyve (microfluidic electrophoresis kinase assay). Type of test: biochemical. Conditions: 2 nM enzyme, PI3P/PS substrate, 3 h at room temperature, 12 concentrations. The method in brief:
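GST-tagged full-length PIKfyve (baculovirus-expressed, 2 nM final) with fluorescent PI3P/PS substrate (1 μM PI3P) and […] in HEPES pH 7.5 with Mg2+/Mn2+, 1% DMSO, 3 h at room temperature; 12 concentrations. PI(3,5)P product and substrate separated by microfluidic electrophoresis; % inhibition from product/sum ratio.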

Test [3] concerns C9 iPSC MN (ALS patient derived motor neurons). Put plainly: iPSC MN Survival assay. Type of test: cell-based, human. Conditions: maximal reduction in hazard ratio vs control (Cox regression); <1.0 indicates increased survival. As to the method: [The source words this procedure for another variant and reports this variant under the same test.] iPSC MN Survival assay: Fibroblasts from ALS patients with known SOD1 A4V mutation were reprogrammed into inducible pluripotent stem cells (iPSC) and then differentiated to motor neurons. In culture, ALS patient derived motor neurons show increased death rate compared to motor neurons derived from healthy individuals in a stressed condition (nutrient deprived media, Hank's buffered salt solution-HBSS).
Cell rescue was measured following more than two different concentrations of each compound for six days with greater than four replicates in a 96-well format to ensure studies with power >0.8. Cells are transduced with a GFP reporter and imaged once a day to track survival. A broad-spectrum caspase inhibitor served as the positive control.
Microscopy image-based readout: Cells are transduced with a GFP reporter and imaged once a day with a blue laser to track survival. Imagers used include the Biotek Cytation 5 and Thermo Fisher EVOS Auto FL 2. All Images undergo uniform processing consisting of rolling hat background subtraction and contrast adjustment.
Cells are identified by their shape and each cell is tracked across images and time points for each well. Survival is visually assessed from the Kaplan-Meier curves. Survival of the cells is modeled and tested using a mixed effects Cox regression where each well is modeled as the random effect, and the group (control/treatment) as the fixed effect. Hazard ratios between treatment and control are estimated within the Cox regression where a value of 1.0 denotes no change, values >1.0 indicate decreased survival in response to treatment, and values <1.0 indicate increased survival in response to treatment. Data are presented as the maximal reduction in hazard ratio scores measured at various concentrations.

Sequence of Full length human recombinant PIKFYVE (Q9Y2I7 whole entry): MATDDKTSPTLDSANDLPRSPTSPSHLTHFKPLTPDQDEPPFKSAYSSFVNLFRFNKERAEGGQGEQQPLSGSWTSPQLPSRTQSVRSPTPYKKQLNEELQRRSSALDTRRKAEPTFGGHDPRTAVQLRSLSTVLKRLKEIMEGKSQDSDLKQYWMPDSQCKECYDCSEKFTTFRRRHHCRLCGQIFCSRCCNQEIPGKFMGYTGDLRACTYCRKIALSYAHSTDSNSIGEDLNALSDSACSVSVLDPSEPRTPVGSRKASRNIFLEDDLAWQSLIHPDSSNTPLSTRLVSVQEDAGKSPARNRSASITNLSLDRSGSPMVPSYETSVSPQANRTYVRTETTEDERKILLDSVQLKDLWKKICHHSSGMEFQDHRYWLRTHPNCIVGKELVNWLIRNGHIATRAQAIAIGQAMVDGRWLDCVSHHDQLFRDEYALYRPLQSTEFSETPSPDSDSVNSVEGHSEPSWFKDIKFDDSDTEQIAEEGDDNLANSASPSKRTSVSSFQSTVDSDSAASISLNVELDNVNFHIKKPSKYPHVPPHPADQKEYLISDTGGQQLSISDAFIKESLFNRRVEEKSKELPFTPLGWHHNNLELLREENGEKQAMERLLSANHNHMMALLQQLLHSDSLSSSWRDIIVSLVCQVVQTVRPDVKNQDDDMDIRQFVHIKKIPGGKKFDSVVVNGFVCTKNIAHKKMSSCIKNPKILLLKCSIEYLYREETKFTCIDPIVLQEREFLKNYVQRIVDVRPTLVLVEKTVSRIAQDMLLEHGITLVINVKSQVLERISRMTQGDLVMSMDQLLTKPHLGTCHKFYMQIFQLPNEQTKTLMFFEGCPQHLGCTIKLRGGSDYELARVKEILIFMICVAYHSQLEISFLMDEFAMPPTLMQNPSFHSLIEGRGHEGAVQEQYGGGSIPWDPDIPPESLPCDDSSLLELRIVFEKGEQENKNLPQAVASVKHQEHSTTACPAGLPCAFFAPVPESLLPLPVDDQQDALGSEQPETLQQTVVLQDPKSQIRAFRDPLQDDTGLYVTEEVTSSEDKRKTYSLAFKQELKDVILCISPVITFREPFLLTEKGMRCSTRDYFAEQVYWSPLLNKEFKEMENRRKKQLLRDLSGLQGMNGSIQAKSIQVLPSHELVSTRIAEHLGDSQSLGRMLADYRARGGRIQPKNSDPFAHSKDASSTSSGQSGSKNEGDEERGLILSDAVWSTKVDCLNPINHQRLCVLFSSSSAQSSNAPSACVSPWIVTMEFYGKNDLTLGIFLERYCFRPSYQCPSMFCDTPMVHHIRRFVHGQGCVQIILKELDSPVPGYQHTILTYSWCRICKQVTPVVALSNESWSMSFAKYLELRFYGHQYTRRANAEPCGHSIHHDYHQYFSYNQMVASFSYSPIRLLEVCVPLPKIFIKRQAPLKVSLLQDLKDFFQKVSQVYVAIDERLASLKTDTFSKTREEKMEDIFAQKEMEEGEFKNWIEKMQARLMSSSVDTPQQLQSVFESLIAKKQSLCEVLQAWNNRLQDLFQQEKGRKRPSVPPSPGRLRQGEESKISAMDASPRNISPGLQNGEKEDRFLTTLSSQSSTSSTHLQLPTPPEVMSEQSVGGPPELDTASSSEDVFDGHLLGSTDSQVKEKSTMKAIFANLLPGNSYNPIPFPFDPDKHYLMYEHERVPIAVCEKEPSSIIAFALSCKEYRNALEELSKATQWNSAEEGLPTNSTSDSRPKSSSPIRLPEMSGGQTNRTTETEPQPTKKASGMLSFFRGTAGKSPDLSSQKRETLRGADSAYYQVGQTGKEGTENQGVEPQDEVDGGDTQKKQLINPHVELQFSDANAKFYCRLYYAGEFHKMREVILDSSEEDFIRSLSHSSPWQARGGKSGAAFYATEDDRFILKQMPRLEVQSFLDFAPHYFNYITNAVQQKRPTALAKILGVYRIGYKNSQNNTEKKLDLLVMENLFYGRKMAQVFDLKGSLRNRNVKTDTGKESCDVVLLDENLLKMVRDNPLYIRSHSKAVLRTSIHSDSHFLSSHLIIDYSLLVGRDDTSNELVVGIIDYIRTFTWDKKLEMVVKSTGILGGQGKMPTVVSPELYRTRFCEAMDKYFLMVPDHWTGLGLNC

`Cc1cccc(-c2ccn(-c3cc(N4CCOCC4)n4nc(C(=O)N[C@H](C)C5CC5)cc4n3)n2)c1` [Example 21, (R)—N-(1-cyclopropylethyl)-7-morpholino-5-(3-(m-tolyl)-1H-pyrazol-1-yl)pyrazolo[1,5-a]pyrimidine-2-carboxamide]: a half-maximal response in test [1] (EC50) required 110 nM. In test [2], the IC50 was found to be 21.6 nM. The like results for `Cc1cccc(-c2ccn(-c3cc(N4CCOCC4)n4nc(C(=O)N[C@@H](C)C5CC5)cc4n3)n2)c1` [Example 22, (S)—N-(1-cyclopropylethyl)-7-morpholino-5-(3-(m-tolyl)-1H-pyrazol-1-yl)pyrazolo[1,5-a]pyrimidine-2-carboxamide] were, in that order, 112 nM and 12.6 nM. `Cc1cccc(-c2ccn(-c3cc(N4CCOCC4)n4nc(C(=O)N5CCC5)cc4n3)n2)c1` [Example 28, azetidin-1-yl(7-morpholino-5-(3-(m-tolyl)-1H-pyrazol-1-yl)pyrazolo[1,5-a]pyrimidin-2-yl)methanone]: the IC50 in test [2] turned out to be 137 nM. The same measure, in the same setting: under `Cc1cccc(-c2ccn(-c3cc(N4CCOCC4)n4nc(C(=O)N5CCCC5)cc4n3)n2)c1` [Example 29, (7-morpholino-5-(3-(m-tolyl)-1H-pyrazol-1-yl)pyrazolo[1,5-a]pyrimidin-2-yl) (pyrrolidin-1-yl)methanone] stands 94.6 nM. Same read-out and setting: the result for `Cc1cccc(-c2ccn(-c3cc(N4CCOCC4)n4nc(C(=O)N5CCCCC5)cc4n3)n2)c1` [Example 30, (7-morpholino-5-(3-(m-tolyl)-1H-pyrazol-1-yl)pyrazolo[1,5-a]pyrimidin-2-yl)(piperidin-1-yl)methanone] reads 247 nM. On the same count and under the same terms, the result for `Cc1cccc(-c2ccn(-c3cc(N4CCOCC4)n4nc(C(=O)N5CCOCC5)cc4n3)n2)c1` [Example 31, morpholino (7-morpholino-5-(3-(m-tolyl)-1H-pyrazol-1-yl)pyrazolo[1,5-a]pyrimidin-2-yl)methanone] reads 242 nM. For the compound `Cc1cccc(-c2ccn(-c3cc(N4CCOCC4)n4nc(C(=O)N5CCN(C)CC5)cc4n3)n2)c1` [Example 32, (4-methylpiperazin-1-yl) (7-morpholino-5-(3-(m-tolyl)-1H-pyrazol-1-yl)pyrazolo[1,5-a]pyrimidin-2-yl)methanone], the IC50 in test [2] amounted to 254 nM. Still for that read-out and setting: under `CON(C)C(=O)c1cc2nc(-n3ccc(-c4cccc(C)c4)n3)cc(N3CCOCC3)n2n1` [Example 33, N-methoxy-N-methyl-7-morpholino-5-(3-(m-tolyl)-1H-pyrazol-1-yl)pyrazolo[1,5-a]pyrimidine-2-carboxamide] stands 113 nM. As for `CONC(=O)c1cc2nc(-n3ccc(-c4cccc(C)c4)n3)cc(N3CCOCC3)n2n1` [Example 34, N-methoxy-7-morpholino-5-(3-(m-tolyl)-1H-pyrazol-1-yl)pyrazolo[1,5-a]pyrimidine-2-carboxamide], the “C9 iPSC MN Survival hazard ratio” value in test [3] was 0.82. Further, the IC50 in test [2] came out at 65.6 nM.

On to `Cc1cccc(-c2ccn(-c3cc(N4CCOCC4)n4nc(C(=O)NS(C)(=O)=O)cc4n3)n2)c1` [Example 35, N-(methylsulfonyl)-7-morpholino-5-(3-(m-tolyl)-1H-pyrazol-1-yl)pyrazolo[1,5-a]pyrimidine-2-carboxamide], for which the IC50 in test [2] is 422 nM. `Cc1cccc(-c2ccn(-c3cc(N4CCOCC4)n4nc(C(=O)NC5CCCC5)cc4n3)n2)c1` [Example 36, N-cyclopentyl-7-morpholino-5-(3-(m-tolyl)-1H-pyrazol-1-yl)pyrazolo[1,5-a]pyrimidine-2-carboxamide] registered an EC50 in test [1] of 67 nM. The IC50 in test [2] turned out to be 21.6 nM.

For the compound `Cc1cccc(-c2ccn(-c3cc(N4CCOCC4)n4nc(C(=O)N(C)C5CCCC5)cc4n3)n2)c1` [Example 37, N-cyclopentyl-N-methyl-7-morpholino-5-(3-(m-tolyl)-1H-pyrazol-1-yl)pyrazolo[1,5-a]pyrimidine-2-carboxamide], the half-maximal inhibitory concentration (IC50) in test [2] was 213 nM. As for `Cc1cccc(-c2ccn(-c3cc(N4CCOCC4)n4nc(C(=O)NC(C)C)cc4n3)n2)c1` [Example 38, N-isopropyl-7-morpholino-5-(3-(m-tolyl)-1H-pyrazol-1-yl)pyrazolo[1,5-a]pyrimidine-2-carboxamide], the IC50 in test [2] is 25.7 nM. Same read-out and setting: the result for `COCC(COC)NC(=O)c1cc2nc(-n3ccc(-c4cccc(C)c4)n3)cc(N3CCOCC3)n2n1` [Example 39, N-(1,3-dimethoxypropan-2-yl)-7-morpholino-5-(3-(m-tolyl)-1H-pyrazol-1-yl)pyrazolo[1,5-a]pyrimidine-2-carboxamide] reads 99.6 nM. Same read-out and setting: under `Cc1cccc(-c2ccn(-c3cc(N4CCOCC4)n4nc(C(=O)NCCN(C)C)cc4n3)n2)c1` [Example 40, N-(2-(dimethylamino)ethyl)-7-morpholino-5-(3-(m-tolyl)-1H-pyrazol-1-yl)pyrazolo[1,5-a]pyrimidine-2-carboxamide] stands 258 nM. In turn, `Cc1cccc(-c2ccn(-c3cc(N4CCOCC4)n4nc(C(=O)NCCCCN(C)C)cc4n3)n2)c1` [Example 41, N-(4-(dimethylamino)butyl)-7-morpholino-5-(3-(m-tolyl)-1H-pyrazol-1-yl)pyrazolo[1,5-a]pyrimidine-2-carboxamide] showed an EC50 in test [1] of 67 nM. The IC50 in test [2] came out at 32.4 nM. For `Cc1cccc(-c2ccn(-c3cc(N4CCOCC4)n4nc(C(=O)NC5COC5)cc4n3)n2)c1` [Example 42, 7-morpholino-N-(oxetan-3-yl)-5-(3-(m-tolyl)-1H-pyrazol-1-yl)pyrazolo[1,5-a]pyrimidine-2-carboxamide], the IC50 in test [2] was 63.3 nM. Regarding `Cc1cccc(-c2ccn(-c3cc(N4CCOCC4)n4nc(C(=O)NCC5COC5)cc4n3)n2)c1` [Example 43, 7-morpholino-N-(oxetan-3-ylmethyl)-5-(3-(m-tolyl)-1H-pyrazol-1-yl)pyrazolo[1,5-a]pyrimidine-2-carboxamide], the half-maximal effective concentration (EC50) in test [1] was 92 nM. In test [2], the IC50 worked out at 46.4 nM.

`Cc1cccc(-c2ccn(-c3cc(N4CCOCC4)n4nc(C(=O)NCC5(CO)COC5)cc4n3)n2)c1` [Example 44, N-((3-(hydroxymethyl)oxetan-3-yl)methyl)-7-morpholino-5-(3-(m-tolyl)-1H-pyrazol-1-yl)pyrazolo[1,5-a]pyrimidine-2-carboxamide]: in test [2], the IC50 was 79 nM. Same read-out and setting: under `Cc1cccc(-c2ccn(-c3cc(N4CCOCC4)n4nc(C(=O)N5CC6(COC6)C5)cc4n3)n2)c1` [Example 45, (7-morpholino-5-(3-(m-tolyl)-1H-pyrazol-1-yl)pyrazolo[1,5-a]pyrimidin-2-yl) (2-oxa-6-azaspiro[3.3]heptan-6-yl)methanone] stands 105 nM; under `Cc1cccc(-c2ccn(-c3cc(N4CCOCC4)n4nc(C(=O)N5CCC56COC6)cc4n3)n2)c1` [Example 46, (7-morpholino-5-(3-(m-tolyl)-1H-pyrazol-1-yl)pyrazolo[1,5-a]pyrimidin-2-yl) (6-oxa-1-azaspiro[3.3]heptan-1-yl)methanone], 113 nM. For the compound `Cc1cccc(-c2ccn(-c3cc(N4CCOCC4)n4nc(C(=O)NOC5COC5)cc4n3)n2)c1` [Example 47, 7-morpholino-N-(oxetan-3-yloxy)-5-(3-(m-tolyl)-1H-pyrazol-1-yl)pyrazolo[1,5-a]pyrimidine-2-carboxamide], the IC50 in test [2] stood at 122 nM.
